# Laboratory results reported in PubChem BioAssay AID192 (DTP/NCI, 2004).
# Several values for one entry are separate records, joined by “and”; a condition that tells them apart may be missing. Identical values can stand only once. Inconclusive results and toxic doses are left out.
# Tested on: BDF1 mice, B16 melanoma ip, median survival T/C
# Experiment: NCI In Vivo Anticancer Drug Screen. Data for tumor model B16 Melanoma (intraperitoneal) in B6D2F1 (BDF1) mice
# Details: endpoint: median survival time, higher = longer survival
# How it was run: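 Mice with transplantable tumors; drug vs vehicle groups; endpoint survival or tumor size; value = T/C.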
# [1] = dose: 100.0 mg/kg/injection, schedule: Q01DX009 (ip), vehicle: Klucel (hydroxypropylcellulose) (HPC)
# [2] = dose: 200.0 mg/kg/injection, schedule: Q01DX009 (ip), vehicle: Klucel (hydroxypropylcellulose) (HPC)
# [3] = dose: 25.0 mg/kg/injection, schedule: Q01DX009 (ip), vehicle: Klucel (hydroxypropylcellulose) (HPC)
# [4] = dose: 25.0 mg/kg/injection, schedule: Q01DX009 (ip), vehicle: saline with Tween-80
# [5] = dose: 50.0 mg/kg/injection, schedule: Q01DX009 (ip), vehicle: saline with Tween-80
# [6] = dose: 6.25 mg/kg/injection, schedule: Q01DX009 (ip), vehicle: saline
# [7] = dose: 100.0 mg/kg/injection, schedule: Q01DX009 (ip), vehicle: saline with Tween-80
# [8] = dose: 200.0 mg/kg/injection, schedule: Q01DX009 (ip), vehicle: saline with Tween-80
compound,measurement,setting,value
Cc1c(O)c2c(c(O)c1Cc1ccc(CN)cc1)C(=O)c1ccccc1C2=O,T/C,"dose: 0.78 mg/kg/injection, schedule: Q01DX009 (ip), vehicle: water",109 % of control
same,T/C,"dose: 1.56 mg/kg/injection, schedule: Q01DX009 (ip), vehicle: water",109 % of control
same,T/C,"dose: 3.13 mg/kg/injection, schedule: Q01DX009 (ip), vehicle: water",98 % of control
same,T/C,"dose: 6.25 mg/kg/injection, schedule: Q01DX009 (ip), vehicle: water",93 % of control
CN(C)N=Nc1ccnc2c(Cl)cccc12,T/C,"dose: 10.8 mg/kg/injection, schedule: Q01DX009 (ip), vehicle: DMSO",101 % of control
same,T/C,"dose: 18.0 mg/kg/injection, schedule: Q01DX009 (ip), vehicle: DMSO",103 % of control
same,T/C,"dose: 30.0 mg/kg/injection, schedule: Q01DX009 (ip), vehicle: DMSO",101 % of control
same,T/C,"dose: 50.0 mg/kg/injection, schedule: Q01DX009 (ip), vehicle: DMSO",99 % of control
Cc1cc(Cl)ccc1NC(=O)c1ccccc1C(=O)O,T/C,[1],96 % of control
same,T/C,"dose: 100.0 mg/kg/injection, schedule: Q04DX003 (ip), vehicle: Klucel (hydroxypropylcellulose) (HPC)",93 % of control
same,T/C,[2],100 % of control
same,T/C,"dose: 200.0 mg/kg/injection, schedule: Q04DX003 (ip), vehicle: Klucel (hydroxypropylcellulose) (HPC)",96 % of control
same,T/C,"dose: 400.0 mg/kg/injection, schedule: Q04DX003 (ip), vehicle: Klucel (hydroxypropylcellulose) (HPC)",106 % of control
CC1(C)N=C(N)N=C(N)N1c1cc(Cl)ccc1Cl,T/C,"dose: 6.25 mg/kg/injection, schedule: Q01DX009 (ip), vehicle: Klucel (hydroxypropylcellulose) (HPC)",94 % of control
same,T/C,"dose: 12.5 mg/kg/injection, schedule: Q01DX009 (ip), vehicle: Klucel (hydroxypropylcellulose) (HPC)",92 % of control
same,T/C,[3],89 % of control and 94 % of control
C/C=C(\C)C(=O)OC1C(C)=C2C(C1OC(=O)CCCC)C(C)(OC(C)=O)CC(OC(=O)CCCC)C1(O)C2OC(=O)C1(C)O (centres undefined),T/C,"dose: 0.37 mg/kg/injection, schedule: Q01DX009 (ip), vehicle: Klucel (hydroxypropylcellulose) (HPC)",90 % of control
same,T/C,"dose: 0.75 mg/kg/injection, schedule: Q01DX009 (ip), vehicle: Klucel (hydroxypropylcellulose) (HPC)",101 % of control
same,T/C,"dose: 1.5 mg/kg/injection, schedule: Q01DX009 (ip), vehicle: Klucel (hydroxypropylcellulose) (HPC)",106 % of control
same,T/C,"dose: 3.0 mg/kg/injection, schedule: Q01DX009 (ip), vehicle: Klucel (hydroxypropylcellulose) (HPC)",89 % of control
COc1ccc(CCNC(C)=O)cc1OC,T/C,[3],91 % of control
same,T/C,"dose: 50.0 mg/kg/injection, schedule: Q01DX009 (ip), vehicle: Klucel (hydroxypropylcellulose) (HPC)",89 % of control
CC1CC(C)OS(=O)O1 (centres undefined),T/C,"dose: 12.5 mg/kg/injection, schedule: Q01DX009 (ip), vehicle: saline sonified",108 % of control
same,T/C,"dose: 25.0 mg/kg/injection, schedule: Q01DX009 (ip), vehicle: saline sonified",100 % of control
same,T/C,"dose: 50.0 mg/kg/injection, schedule: Q01DX009 (ip), vehicle: saline sonified",100 % of control
Cc1cccc(C)c1NC(=O)Nc1ccc(Cl)c(Cl)c1,T/C,"dose: 25.0 mg/kg/injection, schedule: Q01DX009 (ip), vehicle: other",95 % of control
same,T/C,"dose: 50.0 mg/kg/injection, schedule: Q01DX009 (ip), vehicle: other",99 % of control
same,T/C,"dose: 100.0 mg/kg/injection, schedule: Q01DX009 (ip), vehicle: other",87 % of control and 103 % of control
C/C=C/C(=O)OC(C)CCC(CC)CCCC (centres undefined),T/C,[1],90 % of control
same,T/C,[2],90 % of control
same,T/C,"dose: 400.0 mg/kg/injection, schedule: Q01DX009 (ip), vehicle: Klucel (hydroxypropylcellulose) (HPC)",90 % of control
CC(=O)OC(CC(O)(C(F)(F)F)C(F)(F)F)C(C)(C)C (centres undefined),T/C,"dose: 12.5 mg/kg/injection, schedule: Q01DX009 (ip), vehicle: saline with Tween-80",120 % of control
same,T/C,"dose: 12.5 mg/kg/injection, schedule: Q04DX003 (ip), vehicle: saline with Tween-80",105 % of control
same,T/C,[4],117 % of control
same,T/C,"dose: 25.0 mg/kg/injection, schedule: Q04DX003 (ip), vehicle: saline with Tween-80",105 % of control
same,T/C,[5],97 % of control
same,T/C,"dose: 50.0 mg/kg/injection, schedule: Q04DX003 (ip), vehicle: saline with Tween-80",117 % of control
Cc1nn(CCO)c(C)c1N=[N+]([O-])c1c(C)nn(CCO)c1C,T/C,"dose: 15.0 mg/kg/injection, schedule: Q01DX011 (ip), vehicle: saline with Tween-80",88 % of control
CC(C)C1OC(=O)/C=C/C=C/C=C/C=C/C=C/CC(O)C(C)C(O)CC(O)CC(O)CC(O)CC(O)CC(O)CC(O)/C=C/C1C (centres undefined),T/C,[6],98 % of control
CCN(CC)CCOC(=O)c1ccc(NC(=O)Nc2ccc(C(=O)OCCN(CC)CC)cc2)cc1,T/C,[6],95 % of control
same,T/C,"dose: 12.5 mg/kg/injection, schedule: Q01DX009 (ip), vehicle: saline",88 % of control
same,T/C,[4],97 % of control
same,T/C,"dose: 25.0 mg/kg/injection, schedule: Q01DX009 (ip), vehicle: saline",102 % of control
same,T/C,[5],110 % of control
same,T/C,[7],108 % of control
CCC1CN2CCc3cc(OC)c(OC)cc3C2CC1CC1c2cc(OC)c(OC)cc2CCN1C(=O)C(Cc1c[nH]c2ccccc12)NC(=O)OC(C)(C)C (centres undefined),T/C,"dose: 8.0 mg/kg/injection, schedule: Q04DX003 (ip), vehicle: saline with Tween-80",102 % of control
same,T/C,"dose: 16.0 mg/kg/injection, schedule: Q04DX003 (ip), vehicle: saline with Tween-80",102 % of control
same,T/C,"dose: 32.0 mg/kg/injection, schedule: Q04DX003 (ip), vehicle: saline with Tween-80",100 % of control
same,T/C,"dose: 64.0 mg/kg/injection, schedule: Q04DX003 (ip), vehicle: saline with Tween-80",110 % of control
same,T/C,"dose: 128.0 mg/kg/injection, schedule: Q04DX003 (ip), vehicle: saline with Tween-80",89 % of control
O=C1c2ccccc2S(=O)c2ccccc21,T/C,[1],97 % of control
same,T/C,[2],93 % of control
CC(C)(C)c1cc(C[P+](c2ccccc2)(c2ccccc2)c2ccccc2)cc(C(C)(C)C)c1O,T/C,"dose: 0.78 mg/kg/injection, schedule: Q01DX009 (ip), vehicle: saline",111 % of control
same,T/C,"dose: 1.56 mg/kg/injection, schedule: Q01DX009 (ip), vehicle: saline",109 % of control
same,T/C,"dose: 3.12 mg/kg/injection, schedule: Q01DX009 (ip), vehicle: saline",104 % of control
same,T/C,"dose: 3.25 mg/kg/injection, schedule: Q04DX003 (ip), vehicle: saline",94 % of control
same,T/C,"dose: 4.6 mg/kg/injection, schedule: Q01DX009 (ip), vehicle: saline",86 % of control
C1=CCOCOC1,T/C,"dose: 12.5 mg/kg/injection, schedule: Q04DX003 (ip), vehicle: saline",96 % of control
same,T/C,"dose: 25.0 mg/kg/injection, schedule: Q04DX003 (ip), vehicle: saline",107 % of control
same,T/C,"dose: 50.0 mg/kg/injection, schedule: Q04DX003 (ip), vehicle: saline",93 % of control
NC(=O)N/N=C1\CC2C=CCC12 (centres undefined),T/C,[5],105 % of control
same,T/C,[7],97 % of control
same,T/C,[8],101 % of control
CC(=O)SCCCCl,T/C,[5],108 % of control
same,T/C,[7],112 % of control
same,T/C,[8],97 % of control
CCCCCCCCCCCC[N+](C)(C)Cc1ccccc1,T/C,"dose: 0.25 mg/kg/injection, schedule: Q01DX009 (ip), vehicle: saline",100 % of control and 110 % of control
same,T/C,"dose: 0.25 mg/kg/injection, schedule: Q04DX003 (ip), vehicle: saline",103 % of control
same,T/C,"dose: 0.5 mg/kg/injection, schedule: Q01DX009 (ip), vehicle: saline",97 % of control and 105 % of control and 107 % of control
same,T/C,"dose: 0.5 mg/kg/injection, schedule: Q04DX003 (ip), vehicle: saline",95 % of control and 100 % of control
same,T/C,"dose: 1.0 mg/kg/injection, schedule: Q01DX009 (ip), vehicle: saline",92 % of control and 104 % of control
same,T/C,"dose: 1.0 mg/kg/injection, schedule: Q04DX003 (ip), vehicle: saline",96 % of control
same,T/C,"dose: 2.0 mg/kg/injection, schedule: Q01DX009 (ip), vehicle: saline with Tween-80",150 % of control
same,T/C,"dose: 2.0 mg/kg/injection, schedule: Q01DX009 (ip), vehicle: saline",88 % of control and 106 % of control
same,T/C,"dose: 2.0 mg/kg/injection, schedule: Q04DX003 (ip), vehicle: saline with Tween-80",158 % of control
same,T/C,"dose: 2.0 mg/kg/injection, schedule: Q04DX003 (ip), vehicle: saline",88 % of control
same,T/C,"dose: 4.0 mg/kg/injection, schedule: Q01DX009 (ip), vehicle: saline",94 % of control and 100 % of control
same,T/C,"dose: 4.0 mg/kg/injection, schedule: Q04DX003 (ip), vehicle: saline with Tween-80",177 % of control
same,T/C,"dose: 4.0 mg/kg/injection, schedule: Q04DX003 (ip), vehicle: saline",93 % of control
